In the NIST ThermoML archive (doi:10.1021/je5006938):
Numbers after ± are expanded uncertainties.

Settings: Liquid, Closed cell (Static) method

Compound | vapor or sublimation pressure (268.13 K) | vapor or sublimation pressure (278.13 K) | vapor or sublimation pressure (288.15 K) | vapor or sublimation pressure (298.17 K) | vapor or sublimation pressure (308.2 K) | vapor or sublimation pressure (318.21 K) | vapor or sublimation pressure (278.14 K) | vapor or sublimation pressure (288.14 K) | vapor or sublimation pressure (298.14 K) | vapor or sublimation pressure (308.19 K) | vapor or sublimation pressure (318.22 K)
FC(F)(F)C1(F)OC1(F)F (configuration not stated) [2,2,3-trifluoro-3-(trifluoromethyl)oxirane] | 258.47 ± 1.6 kPa | 365.66 ± 1.8 kPa | 503.71 ± 2.1 kPa | 678.24 ± 2.5 kPa | 894.42 ± 3 kPa | 1160.2 ± 3.4 kPa |  |  |  |  | 
FC(F)=C(F)C(F)(F)F [hexafluoropropene] | 278.57 ± 1.7 kPa |  |  |  |  |  | 394.08 ± 1.9 kPa | 542.58 ± 2.2 kPa | 729.82 ± 2.6 kPa | 963.24 ± 3.2 kPa | 1251.2 ± 3.6 kPa
